- melting point: 100 to 101 °C
Compound: COC(=O)NOc1cc(/C(C)=N/OCc2cccc(C(F)(F)F)n2)ccc1Cl [Compound 1446, methyl N-(2-chloro-5-{1-[6-trifluoromethylpyridin-2-ylmethoxyimino]ethyl}phenoxy) carbamate]

Source: patent US8268755B2, “Oxime ether derivative and fungicide for agricultural and horticultural use” (Nippon Soda Co., Ltd., priority 2007, dated 2012)
